Reference: patent US11208386B2, “Inhibitors of protein arginine deiminases (PADs) and methods of preparation and use thereof” (University of Massachusetts, priority 2016, dated 2021)

Key:
[1] = cited from earlier work
PAD1 = target: T1, PAD1 (Homo sapiens, UniProt Q9ULC6); assay: Inactivation kinetics, PAD1; assay type: biochemical; conditions: for kinact/KI: a: single kobs determined, b: from a linear fit; for Fold PAD1 Selectivity: kinact/KI relative to least inhibited isozyme (1.0)
T1 construct: made in house
T1 sequence (Q9ULC6 1-663): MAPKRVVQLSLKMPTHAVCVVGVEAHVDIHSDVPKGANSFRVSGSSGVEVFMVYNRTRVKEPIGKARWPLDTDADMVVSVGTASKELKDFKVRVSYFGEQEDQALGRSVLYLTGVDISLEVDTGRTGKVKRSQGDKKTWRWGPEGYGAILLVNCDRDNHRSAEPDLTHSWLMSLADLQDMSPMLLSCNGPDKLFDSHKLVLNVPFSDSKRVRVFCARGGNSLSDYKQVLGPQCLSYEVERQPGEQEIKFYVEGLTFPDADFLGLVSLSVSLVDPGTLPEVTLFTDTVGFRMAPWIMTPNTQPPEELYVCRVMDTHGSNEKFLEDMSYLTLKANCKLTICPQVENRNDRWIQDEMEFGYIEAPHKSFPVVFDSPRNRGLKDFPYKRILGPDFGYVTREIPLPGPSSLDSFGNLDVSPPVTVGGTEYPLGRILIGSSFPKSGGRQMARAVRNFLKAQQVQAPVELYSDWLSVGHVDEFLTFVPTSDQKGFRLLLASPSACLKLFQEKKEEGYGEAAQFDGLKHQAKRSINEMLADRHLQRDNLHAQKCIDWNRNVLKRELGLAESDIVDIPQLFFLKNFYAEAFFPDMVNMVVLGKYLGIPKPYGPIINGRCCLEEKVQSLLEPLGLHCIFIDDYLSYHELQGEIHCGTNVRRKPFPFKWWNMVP
Procedure, shortened: (§1)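 PAD1, 2 or 4 (2.0 μM) or PAD3 (5.0 μM) preincubated at 37 °C with varying inhibitor in 50 mM HEPES, 10 mM CaCl2, 2 mM DTT, pH 7.6. Timed aliquots assayed 15 min with 10 mM BAEE (BAA for PAD3); citrulline quantified by COLDER.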

PAD2 [2] = target: T2, PAD2 (Homo sapiens, UniProt Q9Y2J8); assay: In vitro labeling of PAD2 with clickable probes to determine limit of detection; assay type: binding; conditions: probe clicked with TAMRA-N3
T2 construct: made in house
Description: In Vitro Labeling o f PAD2 with BB-F-Yne (5u) and BB-C-Yne (5v) to Determine their Limit of detection (LOD)
BB-F-Yne (5u) or BB-Cl-Yne (5v) (10 μM) were incubated with decreasing concentrations of recombinant PAD2 (1.0 to 0.025 μM) in the presence of CaCl2 in 1×PBS (2 mM) at 37° C. for 1 h. The probe labeled enzymes were coupled to TAMRA-N3 (20 μM) in the presence of 1×TBTA (0.31 mM), sodium ascorbate (2 mM) and freshly prepared CuSO4 (1 mM). The tubes were gently tumbled for 1 h. […] The bands were visualized by scanning the gel in a typhoon scanner (approximate excitation/emission maxima 546/579, respectively).

PAD3 = target: T3, PAD3 (Homo sapiens, UniProt Q9ULW8); assay: Inactivation kinetics, PAD3; assay type: biochemical; conditions: for kinact/KI: a: single kobs determined; for Fold PAD3 Selectivity: kinact/KI relative to least inhibited isozyme (1.0)
T3 construct: made in house
T3 sequence (Q9ULW8 1-664): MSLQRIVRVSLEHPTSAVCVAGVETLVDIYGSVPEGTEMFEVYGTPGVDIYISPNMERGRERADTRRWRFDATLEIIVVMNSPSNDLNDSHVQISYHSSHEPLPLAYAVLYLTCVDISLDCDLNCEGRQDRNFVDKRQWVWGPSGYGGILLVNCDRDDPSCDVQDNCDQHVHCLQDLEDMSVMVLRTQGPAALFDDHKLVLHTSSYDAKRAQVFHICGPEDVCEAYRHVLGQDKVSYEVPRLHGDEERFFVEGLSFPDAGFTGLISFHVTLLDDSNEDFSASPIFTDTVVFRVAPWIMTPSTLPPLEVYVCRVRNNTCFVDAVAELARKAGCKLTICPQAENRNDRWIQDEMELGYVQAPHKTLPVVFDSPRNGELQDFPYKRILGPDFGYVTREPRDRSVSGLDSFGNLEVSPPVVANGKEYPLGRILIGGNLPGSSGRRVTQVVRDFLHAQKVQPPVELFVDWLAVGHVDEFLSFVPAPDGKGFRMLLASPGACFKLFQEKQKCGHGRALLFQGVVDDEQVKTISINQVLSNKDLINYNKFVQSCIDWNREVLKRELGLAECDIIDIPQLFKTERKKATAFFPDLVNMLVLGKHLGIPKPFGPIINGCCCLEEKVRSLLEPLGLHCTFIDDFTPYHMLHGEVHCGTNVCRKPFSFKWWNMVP
Procedure, shortened: as §1

PAD4 = target: T4, PAD4 (Homo sapiens, UniProt Q9UM07); assay: Inactivation kinetics, PAD4; assay type: biochemical; conditions: for kinact/KI: a: single kobs determined, b: from a linear fit; for Fold PAD4 Selectivity: kinact/KI relative to least inhibited isozyme (1.0)
T4 construct: made in house
Procedure, shortened: as §1

PAD2 [3] = target: T2, PAD2; assay: Inactivation kinetics, PAD2; assay type: biochemical; conditions: for kinact/KI: a: single kobs determined, b: from a linear fit, other footnotes: from kinact and KI; for Fold PAD2 Selectivity: kinact/KI relative to least inhibited isozyme (1.0)
Procedure, shortened: as §1

T2 sequence (Q9Y2J8 whole entry): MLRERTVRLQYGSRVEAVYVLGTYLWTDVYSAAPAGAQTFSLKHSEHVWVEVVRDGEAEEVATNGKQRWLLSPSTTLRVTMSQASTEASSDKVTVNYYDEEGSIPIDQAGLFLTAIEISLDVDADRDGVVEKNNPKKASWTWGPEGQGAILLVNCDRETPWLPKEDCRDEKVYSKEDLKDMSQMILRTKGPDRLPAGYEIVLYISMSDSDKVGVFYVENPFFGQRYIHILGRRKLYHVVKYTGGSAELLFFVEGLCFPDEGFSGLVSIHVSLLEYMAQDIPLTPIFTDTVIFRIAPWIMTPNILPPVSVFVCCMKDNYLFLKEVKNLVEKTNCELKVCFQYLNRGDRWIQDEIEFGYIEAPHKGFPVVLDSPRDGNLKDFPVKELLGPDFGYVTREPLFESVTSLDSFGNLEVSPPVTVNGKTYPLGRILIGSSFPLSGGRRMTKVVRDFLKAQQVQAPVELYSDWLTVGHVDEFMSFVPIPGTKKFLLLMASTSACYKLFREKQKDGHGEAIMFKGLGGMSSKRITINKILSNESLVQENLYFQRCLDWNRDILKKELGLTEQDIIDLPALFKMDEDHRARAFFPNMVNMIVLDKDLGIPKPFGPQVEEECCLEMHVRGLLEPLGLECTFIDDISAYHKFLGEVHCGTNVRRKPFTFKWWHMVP
T4 sequence (Q9UM07 whole entry): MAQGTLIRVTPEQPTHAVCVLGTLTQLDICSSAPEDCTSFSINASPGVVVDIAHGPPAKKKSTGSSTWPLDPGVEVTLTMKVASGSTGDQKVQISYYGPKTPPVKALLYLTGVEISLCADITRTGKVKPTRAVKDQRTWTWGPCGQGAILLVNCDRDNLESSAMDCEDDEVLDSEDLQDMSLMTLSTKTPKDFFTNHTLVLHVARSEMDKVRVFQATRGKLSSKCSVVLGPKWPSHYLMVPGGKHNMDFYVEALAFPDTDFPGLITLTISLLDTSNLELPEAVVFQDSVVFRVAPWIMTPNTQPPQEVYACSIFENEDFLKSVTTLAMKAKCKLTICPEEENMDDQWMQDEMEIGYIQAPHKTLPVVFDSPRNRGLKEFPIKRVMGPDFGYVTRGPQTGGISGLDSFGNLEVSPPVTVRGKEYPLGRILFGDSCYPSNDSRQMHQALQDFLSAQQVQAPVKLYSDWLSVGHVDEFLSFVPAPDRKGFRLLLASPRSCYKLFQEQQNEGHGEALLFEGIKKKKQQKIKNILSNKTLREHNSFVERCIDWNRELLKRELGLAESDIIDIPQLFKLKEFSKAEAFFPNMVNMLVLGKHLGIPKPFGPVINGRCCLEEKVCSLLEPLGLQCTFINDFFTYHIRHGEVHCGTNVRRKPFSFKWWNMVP

| Molecule | kinact/KI (PAD1) [M⁻¹ s⁻¹] | Fold PAD1 Selectivity (PAD1) [fold] | limit of detection (LOD) for PAD2 (PAD2 [2]) [fmol] | kinact/KI (PAD3) [M⁻¹ s⁻¹] | Fold PAD3 Selectivity (PAD3) [fold] | kinact/KI (PAD4) [M⁻¹ s⁻¹] | Fold PAD4 Selectivity (PAD4) [fold] | kinact/KI (PAD2 [3]) [M⁻¹ s⁻¹] | Fold PAD2 Selectivity (PAD2 [3]) [fold] | efficacy in animal models ([1]; rheumatoid arthritis, lupus, ulcerative colitis, spinal cord injury, breast cancer, atherosclerosis) | efficacy in an RA model ([1]; in vivo) |
| --- | --- | --- | --- | --- | --- | --- | --- | --- | --- | --- | --- |
| N=C(CCl)NCCC[C@H](NC(=O)c1ccccc1)C(N)=O [Cl-amidine] | – | – | – | – | – | – | – | – | – | demonstrated efficacy | – |
| C#Cc1ccc(-c2ccc(C(=O)N[C@@H](CCCNC(=N)CF)c3nc4ccccc4[nH]3)cc2)cc1 [Compound 5u, N1-4′-ethynyl-[1,1′-Phenyl]benzol-N5-(2-fluoro-1-iminoethyl)-1-(1H-benzo[d]imidazol-2-yl)-L-ornithine] | 77.5 | 4.8 | 375 | 17.1 | 1.1 | 29.5 | 1.8 | 16.2 | 1.0 | – | – |
| CCN1Cc2cccc(C(=O)N[C@@H](CCCNC(=N)CF)c3nc4cc(OC)ccc4n3CC)c2C1=O [Compound 8y, N1-(2-ethyl-3-oxoisoindoline)benzoyl-N5-(2-fluoro-1-iminoethyl)-1-(5-methoxy-1-ethyl-benzo[d]imidazol-2-yl)-L-ornithine] | 253 | 28 | – | 24.7 | 2.7 | 9 | 1.0 | 630 | 70 | – | – |
| CCN1Cc2cccc(C(=O)N[C@@H](CCCNC(=N)CCl)c3nc4cc(OC)ccc4n3CC)c2C1=O [Compound 8z, N1-(2-ethyl-3-oxoisoindoline)benzoyl-N5-(2-chloro-1-iminoethyl)-1-(5-methoxy-1-ethyl-benzo[d]imidazol-2-yl)-L-ornithine] | 501 | 21 | – | 198 | 8.4 | 23.5 | 1.0 | 637 | 27 | – | – |
| GSK199 | – | – | – | – | – | – | – | – | – | – | shows efficacy |

The next lines start with results.

| kinact/KI (PAD1) [M⁻¹ s⁻¹] | Fold PAD1 Selectivity (PAD1) [fold] | limit of detection (LOD) for PAD2 (PAD2 [2]) [fmol] | kinact/KI (PAD3) [M⁻¹ s⁻¹] | Fold PAD3 Selectivity (PAD3) [fold] | kinact/KI (PAD4) [M⁻¹ s⁻¹] | Fold PAD4 Selectivity (PAD4) [fold] | kinact/KI (PAD2 [3]) [M⁻¹ s⁻¹] | Fold PAD2 Selectivity (PAD2 [3]) [fold] | Molecule | efficacy in animal models ([1]; rheumatoid arthritis, lupus, ulcerative colitis, spinal cord injury, breast cancer, atherosclerosis) | efficacy in an RA model ([1]; in vivo) |
| --- | --- | --- | --- | --- | --- | --- | --- | --- | --- | --- | --- |
| 41.2 | 2.1 | – | 20 | 1.0 | 40.5 | 2.0 | 40 | 2.0 | Cn1c([C@H](CCCNC(=N)CF)NC(=O)c2ccccc2C(=O)OC(C)(C)C)nc2ccccc21 [Compound 9a, N1-(2-tert-butylcarboxy)benzoyl-N5-(2-fluoro-1-iminoethyl)-1-(1-methyl-benzo[d]imidazol-2-yl)-L-ornithine] | – | – |
| 325 | 5.9 | – | 86.7 | 1.6 | 64.2 | 1.2 | 55.2 | 1.0 | Cn1c([C@H](CCCNC(=N)CCl)NC(=O)c2ccccc2C(=O)OC(C)(C)C)nc2ccccc21 [Compound 9b, N1-(2-tert-butylcarboxy)benzol-N5-(2-chloro-1-iminoethyl)-1-(1-methyl-benzo[d]imidazol-2-yl)-L-ornithine] | – | – |
| 15.8 | 2.2 | – | 51.7 | 7.0 | 7.33 | 1.0 | 102 | 14 | CCn1c([C@H](CCCNC(=N)CF)NC(=O)c2ccccc2C(=O)OC(C)(C)C)nc2ccccc21 [Compound 9c, N1-(2-tert-butylcarboxy)benzoyl-N5-(2-fluoro-1-iminoethyl)-1-(1-ethyl-benzo[d]imidazol-2-yl)-L-ornithine] | – | – |
| 200 | 9.3 | – | 78.3 | 3.6 | 21.7 | 1.0 | 152 | 7.0 | CCn1c([C@H](CCCNC(=N)CCl)NC(=O)c2ccccc2C(=O)OC(C)(C)C)nc2ccccc21 [Compound 9d, N1-(2-tert-butylcarboxy)benzoyl-N5-(2-chloro-1-iminoethyl)-1-(1-ethyl-benzo[d]imidazol-2-yl)-L-ornithine] | – | – |
| 23.7 | 8.9 | – | 35 | 13 | 2.67 | 1.0 | 50.2 | 19 | CC(C)n1c([C@H](CCCNC(=N)CF)NC(=O)c2ccccc2C(=O)OC(C)(C)C)nc2ccccc21 [Compound 9e, N1-(2-tert-butylcarboxy)benzoyl-N5-(2-fluoro-1-iminoethyl)-1-(1-isopropyl-benzo[d]imidazol-2-yl)-L-omithine] | – | – |
| 56 | 4.9 | – | 80 | 7.1 | 11.3 | 1.0 | 119 | 11 | CC(C)n1c([C@H](CCCNC(=N)CCl)NC(=O)c2ccccc2C(=O)OC(C)(C)C)nc2ccccc21 [Compound 9f, N1-(2-tert-butylcarboxy)benzoyl-N5-(2-chloro-1-iminoethyl)-1-(1-isopropyl-benzo[d]imidazol-2-yl)-L-omithine] | – | – |
